In publication PMC10762035, “Molecular basis of human trace amine-associated receptor 1 activation” (Nature Communications, 2024):
“And” between values parts separate entries of the source, which are not always exact repeats. Equal values may be shown once. Where a name gives a salt, the structure may show the parent alone.

The compounds below were run against T1, hTA1 (Homo sapiens, UniProt Q96RJ0) (assay: Screen of 89 aminergic compounds at 10 µM, cAMP accumulation in HEK293T cells). Details: not given.
T1 construct: expressed in transfected cells; host or cells: HEK293T
T1 sequence (Q96RJ0 1-339): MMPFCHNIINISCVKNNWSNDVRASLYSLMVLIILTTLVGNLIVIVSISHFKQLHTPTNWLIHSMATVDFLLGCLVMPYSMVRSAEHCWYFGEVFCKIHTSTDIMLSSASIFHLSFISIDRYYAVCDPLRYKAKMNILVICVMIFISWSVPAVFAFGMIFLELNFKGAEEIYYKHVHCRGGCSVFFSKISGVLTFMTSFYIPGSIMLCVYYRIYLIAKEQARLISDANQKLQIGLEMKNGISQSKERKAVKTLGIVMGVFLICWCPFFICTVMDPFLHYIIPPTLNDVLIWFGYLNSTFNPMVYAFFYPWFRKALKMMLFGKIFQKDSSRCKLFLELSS
Assay type: cell-based
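Also: HEK293T cells co-transfected with hTA1 and GloSensor cAMP reporter, cAMP accumulation detected by luminescence.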

| Compound | Luminescence for Screening Data |
| --- | --- |
| CN1CCc2ccccc2Cc2[nH]c3ccccc3c2CC1 [LE300] | 5.7 and 3.6 and 5.5 and 5 |

Same assay, conditions: 10 µM of compound; HEK293T; threshold log2-fold change of 2

| Compound | increase of signal over DMSO-treated controls (hTA1 activation) [fold] |
| --- | --- |
| NCCc1c[nH]cn1 [histamine] | ≥ 4 |

Same assay, conditions: quadruplicate values; screen at 10 µM

| Compound | Luminescence for Screening Data |
| --- | --- |
| COC(=O)[C@H]1[C@H]2C[C@@H]3c4[nH]c5cc(OC)ccc5c4CCN3C[C@H]2C[C@@H](OC(=O)c2cc(OC)c(OC)c(OC)c2)[C@@H]1OC [Reserpine] | 10.3 and 8.2 and 7.3 and 7.1 |
| C=CCN1C[C@H](C(=O)N(CCCN(C)C)C(=O)NCC)C[C@@H]2c3cccc4[nH]cc(c34)C[C@H]21 [Cabergoline] | 7.4 and 6.2 and 7 and 5.7 |
| C=C[C@H]1C[N@@]2CC[C@H]1C[C@H]2[C@H](O)c1ccnc2ccc(OC)cc12 [Quinine sulfate] | 7.1 and 8 and 6.1 and 7.2 |
| CN(C)CCOC1=Cc2ccccc2Sc2ccc(Cl)cc21 [zotepine] | 5.4 and 6.9 and 6.1 and 5.8 |
| O=S(=O)(c1ccccc1)c1cnc2c(N3CCNCC3)cccc2c1 [SB742457] | 9 and 8.4 and 8.8 and 9.7 |
| Cl.O=c1[nH]oc2c1CCNC2 [Gaboxadol HCl] | 7 and 8.2 and 5.3 and 6.3 |
| O=C1Cc2cc(CCN3CCN(c4nsc5ccccc45)CC3)c(Cl)cc2N1 [Ziprasidone] | 5.8 and 4.8 and 5.4 |
| O=C(c1ccc(F)cc1)C1CCN(CCn2c(=O)[nH]c3ccccc3c2=O)CC1 [Ketanserin] | 6.8 and 5.5 and 5.4 and 3.9 |
| NCCc1c[nH]c2ccc(O)cc12 [Serotonin Hydrochloride] | 29.3 |
| Oc1cc(O)c2c(c1)O[C@H](c1cc(O)c(O)c(O)c1)[C@H](O)C2 [Epigallocatechin] | 5.2 and 5.7 and 5.9 and 6.3 |
| O=C1c2ccccc2S(=O)(=O)N1CCCCN1CCN(c2ncccn2)CC1 [Ipsapirone] | 6.8 and 5.5 and 5.4 |
| CS(=O)(=O)Nc1ccc(Cc2noc(-c3ccc4[nH]cc(CCN)c4c3)n2)cc1 [L694 247] | 6.5 and 8.1 and 7.2 |
| CN1C[C@H](C(=O)N[C@]2(C)O[C@@]3(O)[C@@H]4CCCN4C(=O)[C@H](Cc4ccccc4)N3C2=O)C=C2c3cccc4c3c(cn4C)C[C@H]21.O=C(O)/C=C\C(=O)O [Methylergotamine maleate] | 42.5 and 31.9 and 34.9 and 38.8 |
| CN1CCN(C2=Nc3ccccc3Oc3ccc(Cl)cc32)CC1.O=C(O)CCC(=O)O [Loxapine succinate salt] | 5.2 and 3.9 and 5.6 |
| Cc1[nH]c2ccc(Cl)cc2c1C1=CCNCC1 [EMD386088] | 14.2 and 14.9 and 14.6 and 13.7 |
| COc1ccccc1N1CCN(CCCCN2C(=O)c3ccccc3C2=O)CC1 [NAN190] | 6.8 and 8.1 and 6.1 and 6.2 |
| NC(=O)c1ccc(F)c2c1C[C@@H](N(C1CCC1)C1CCC1)CO2 [NAD 299] | 6.3 and 5.6 and 4.8 and 5.9 |
| N#Cc1c[nH]c2c(C(=O)N3CCN(CCc4ccc(F)cc4)CC3)cccc12 [EMD281014] | 4.2 and 3.9 and 4.4 |
| COc1ccc(C(CN(C)C)C2(O)CCCCC2)cc1 (stereo not drawn) [Venlafaxine] | 6.7 and 7 and 6 and 6.5 |
| CN(C)CCCC1(c2ccc(F)cc2)OCc2cc(C#N)ccc21 (stereo not drawn) [Citalopram hydrobromide] | 6.1 and 6.2 and 7.2 and 6.9 |

| Compound | Luminescence for Screening Data |
| --- | --- |
| COc1ccc(S(=O)(=O)Nc2cc(Cl)cc(Cl)c2OC)cc1N1CCNCC1 [SB399885] | 6.4 and 5.8 and 6.1 and 6.2 |
| COC(=O)[C@H]1[C@H]2C[C@H]3c4[nH]c5ccccc5c4CCN3C[C@H]2CC[C@@H]1O [Rauwolscine hydrochloride] | 6.9 and 7.7 and 6.8 |
| Cc1nc2sccn2c(=O)c1CCN1CCC(=C(c2ccc(F)cc2)c2ccc(F)cc2)CC1 [Ritanserin] | 5.6 and 5.8 and 6.1 and 6.3 |
| COc1cc2nc(N3CCN(C(=O)c4ccco4)CC3)nc(N)c2cc1OC [Prazosin hydrochloride] | 6.6 and 6.4 and 6.7 and 7.2 |
| N=C(N)NC(=O)c1nc(Cl)c(N)nc1N [Amiloride] | 9.5 and 8.8 and 7 and 8.1 |
| O=C(CCCCCN1CCN(c2ccccc2-c2ccccc2)CC1)NC1CCCc2ccccc21 (stereo not drawn) [LP12] | 5.4 and 4.7 and 7.1 and 5 |
| NCCc1c[nH]cn1 [histamine] | 13.5 and 15.3 and 16.1 and 15.1 |
| NCCc1ccccc1 [B-PEA] | 160.4 and 164.2 and 180.4 and 167 |
| Fc1ccc2c(CCNCc3cccc(OCC(F)(F)C(F)F)c3)c[nH]c2c1 [LuAE58054] | 7.5 and 10.3 and 7.4 and 7.7 |
| CNS(=O)(=O)Cc1ccc2[nH]cc(CCN(C)C)c2c1 [Sumatriptan] | 6.2 and 7.3 |
| CN(C)c1ccc(/C=C/c2cc[n+](C)cc2)cc1.[I-] [ASP-iodide] | 6.9 and 6.2 and 4.9 and 4.4 |
| CNCCC(Oc1ccc(C(F)(F)F)cc1)c1ccccc1 (stereo not drawn) [Fluoxetine] | 8.5 and 7.5 and 8.1 and 6.5 |
| CN1CCC(C(=O)c2cccc(NC(=O)c3c(F)cc(F)cc3F)n2)CC1 [Lasmitidan] | 5.8 and 6.4 and 6.2 and 4.1 |
| CC(C)[C@@]1(NC(=O)[C@@H]2C[C@@H]3c4cccc5[nH]cc(c45)C[C@H]3N(C)C2)O[C@@]2(O)[C@@H]3CCCN3C(=O)[C@H](Cc3ccccc3)N2C1=O [Dihydroergocristine mesylate] | 5.9 and 6.4 and 5.1 and 5.2 |
| Cc1nn(C)c(C)c1-c1cccc2c1CC[C@H](N(C)C)C2 [AS19] | 9.8 and 9.9 and 8 and 6.8 |
| O=[N+]([O-])c1ccc(CSc2ncnc3c2ncn3[C@@H]2O[C@H](CO)[C@@H](O)[C@H]2O)cc1 [NBMPR] | 6.9 and 7.3 and 6.6 |
| CN/C(=N/CCSCc1nc[nH]c1C)NC#N [Cimetidine] | 8.3 and 6.6 and 8.6 and 5.4 |
| C=CCc1ccccc1OCC(O)CNC(C)C (stereo not drawn) [Alprenolol] | 10.1 and 8.4 and 7.8 and 6.7 |
| CN1CCC(c2c[nH]c3ccc(O)cc23)CC1 [BRL 54443] | 10 and 7.1 and 8.1 and 6.4 |
| COc1cccc([C@H](O)C2CCN(CCc3ccc(F)cc3)CC2)c1OC [MDL 100907] | 5.4 and 6.7 and 5.2 and 5.8 |

| Compound | Luminescence for Screening Data |
| --- | --- |
| CC1CCN(CC[C@H]2CCCN2S(=O)(=O)c2cccc(O)c2)CC1 [SB269970] | 7.2 and 7 and 6.5 |
| NC(=O)C[S+]([O-])C(c1ccccc1)c1ccccc1 (stereo not drawn) [Modafanil] | 6.8 and 5.8 and 5.7 and 8.1 |
| Cl.N#Cc1ccc(N2CCN(C(=O)COc3ccc4[nH]cc(CCN)c4c3)CC2)cc1 [Donitriptan hydrochloride] | 9.4 and 7.6 and 8.3 and 7.4 |
| CSc1ccc2c(c1)C(N1CCN(C)CC1)Cc1ccccc1S2 (stereo not drawn) [Methiothepin] | 2.6 and 3.3 and 3 and 3.4 |
| O=S1(=O)c2cccc3cccc(c23)N1CCCN1CCN(c2ccc(F)cc2)CC1 [Fananserin] | 4.9 and 5 and 4.3 and 5.2 |
| COc1cc2c(cc1OC)C1CC(=O)C(CC(C)C)CN1CC2 (stereo not drawn) [Tetrabenazine] | 6.8 and 8.5 and 6.4 and 8.8 |
| CC(C)c1cc(-c2ccc(F)c3ccccc23)nc(N)n1 [RS 127445] | 10.7 and 5.8 and 6.4 and 7 |
| O=C1CC[C@@]2(O)[C@H]3Cc4ccc(O)c5c4[C@@]2(CCN3CC2CC2)[C@H]1O5 [Naltrexone hydrochloride] | 7.8 and 5.6 and 5.9 and 6.7 |
| CN1CCC(=C2c3ccccc3Sc3ccccc32)CC1 [Pimethixine] | 3.8 and 3.7 |
| CN1CC2c3ccccc3Oc3ccc(Cl)cc3C2C1 (stereo not drawn) [Asenapine maleate] | 139.1 and 129.2 and 126.2 and 110.4 |
| CNC1(c2ccccc2Cl)CCCCC1=O (stereo not drawn) [Ketamine] | 4.7 and 6.1 and 5.5 and 5.6 |
| C/C=C(/C)C(=O)O[C@H]1C(C)=C2[C@H]([C@@H]1OC(=O)CCCCCCC)[C@@](C)(OC(C)=O)C[C@H](OC(=O)CCC)[C@@]1(O)[C@H]2OC(=O)[C@@]1(C)O [Thapsigargin] | 6.1 and 7.3 and 5.8 and 7.7 |
| O=C1Nc2ccc(Cl)cc2[C@@](C#CC2CC2)(C(F)(F)F)O1 [Evafirenz] | 3.7 and 4.1 and 4.4 and 4.6 |
| CN1C[C@H](C(=O)N[C@]2(C)O[C@@]3(O)[C@@H]4CCCN4C(=O)[C@H](Cc4ccccc4)N3C2=O)C[C@@H]2c3cccc4[nH]cc(c34)C[C@H]21 [Dihydroergotamine mesylate] | 25.4 and 24.7 and 32.7 and 26.9 |
| CCN1CCC[C@H]1CNC(=O)c1c(O)c(Cl)cc(Cl)c1OC [Raclopride] | 4.1 and 6.9 and 6.4 and 5 |
| COc1ccc(CC2NCCc3c2[nH]c2ccc(C)cc32)c(Cl)c1OC.Cl (stereo not drawn) [LY266097 hydrochloride] | 5.6 and 6.8 and 5.3 and 5.9 |
| Cn1ccc2cc3c(cc21)CCN3C(=O)Nc1cccnc1 [SB206553] | 5.8 and 7.8 and 6.3 |
| N.N.[Cl][Pt][Cl] [Cisplatin] | 5.8 and 6.4 and 6.9 and 6.2 |
